In the first assay the test system is MOLT-3. The experiment in a line: Antiproliferative activity against human Molt3 cells. In kind it is functional, cell-based.
In turn, `COc1ccc(NC(=O)c2cccc(NC(=O)C(C)Br)c2)cc1` (stereo unspecified) came in with an IC50 of 800 nM.

As for `CCCCNC(=O)c1cccc(NC(=O)C(C)Br)c1` (stereo unspecified), the IC50 is over 10000 nM.

Turning to `COc1cc(NC(=O)c2cccc(NC(=O)C(C)Br)c2)ccc1O` (stereo unspecified), inhibition was half-maximal at 510 nM (IC50).

`CC(Br)C(=O)Nc1cccc(C(=O)Nc2ccc3c(c2)OCO3)c1` (stereo unspecified) gave an IC50 of 620 nM.

`COc1cc(NC(=O)c2cccc(NC(=O)C(C)Br)c2)cc(OC)c1` (stereo unspecified) had an IC50 of 610 nM.

Compound `COc1cc(NC(=O)c2cccc(NC(=O)C(C)Br)c2)cc(OC)c1OC` (stereo unspecified) displayed a half-maximal inhibitory concentration (IC50) of 670 nM.

The compound `COc1ccc(C(=O)Nc2cc(OC)c(OC)c(OC)c2)cc1NC(=O)C(C)Br` (stereo unspecified) came in with an IC50 of 4240 nM.

For `CC(Br)C(=O)Nc1cccc(C(=O)NC(N)=O)c1` (stereo unspecified), inhibition was half-maximal at 1600 nM (IC50).

The compound `CC(Br)C(=O)Nc1cccc(C(=O)Nc2ccc(F)cc2)c1` (stereo unspecified) returned an IC50 of 2000 nM.

In turn, `CCOc1ccc(NC(=O)c2cc(NC(=O)C(C)Br)ccc2F)cc1` (stereo unspecified) had a concentration for half-maximal inhibition (IC50) of over 10000 nM.

Compound `COc1cc(NC(=O)c2cc(NC(=O)C(C)Br)ccc2O)cc(OC)c1OC` (stereo unspecified) showed an IC50 of 1080 nM.

Consider `COc1cc(NC(=O)c2cc(NC(=O)C(C)Br)ccc2F)ccc1O` (stereo unspecified), for which the midpoint of inhibition, the IC50, lay at 850 nM.

Regarding `CCCNC(=O)c1cccc(NC(=O)C(C)Br)c1` (stereo unspecified), the half-maximal inhibitory concentration (IC50) turned out to be 8940 nM.

For `COc1ccc2nc(NC(=O)c3cccc(NC(=O)C(C)Br)c3)sc2c1` (stereo unspecified), the IC50 was found to be 1660 nM.

As for `COc1cc(C(=O)Nc2cccc(NC(=O)C(C)Br)c2)cc(OC)c1OC` (stereo unspecified), it took 5660 nM to reach half-maximal inhibition (IC50).

`COc1cc(NC(=O)c2ccc(NC(=O)C(C)Br)cc2)cc(OC)c1OC` (stereo unspecified) showed an IC50 of 1790 nM.

In turn, `COc1cc(NC(=O)c2ccccc2NC(=O)C(C)Br)cc(OC)c1OC` (stereo unspecified) had an IC50 of 5720 nM.

For the compound `COc1cc(NC(=O)NC(=O)c2cccc(NC(=O)C(C)Br)c2)cc(OC)c1OC` (stereo unspecified), inhibition was half-maximal at 4220 nM (IC50).

`COc1cc(NC(=O)c2cc(NC(=O)C(C)Br)ccc2F)cc(OC)c1OC` (stereo unspecified) gave a concentration for half-maximal inhibition (IC50) of 420 nM.

`COc1cc(NC(=O)c2ccc(F)c(NC(=O)C(C)Br)c2)cc(OC)c1OC` (stereo unspecified) yielded an IC50 of 2200 nM.

`COc1cc(NC(=O)c2ccc(Cl)c(NC(=O)C(C)Br)c2)cc(OC)c1OC` (stereo unspecified) had an IC50 of 2250 nM.

The compound `COc1ccc(NC(=O)c2cc(NC(=O)C(C)Br)ccc2F)cc1` (stereo unspecified) displayed an IC50 of 250 nM.

In turn, `CC(Br)C(=O)Nc1cccc(C(=O)Nc2ccc3[nH]c4ccccc4c3c2)c1` (stereo unspecified) returned an IC50 of 1510 nM.

For `COc1cc(NS(=O)(=O)c2cccc(NC(=O)C(C)Br)c2)cc(OC)c1OC` (stereo unspecified), the IC50 turned out to be 1270 nM.

As to `COc1cc(NC(=O)c2cc(NC(=O)C(C)Br)ccc2F)ccn1` (stereo unspecified), the IC50 was determined as 500 nM.

As for `COc1ccc(NC(=O)c2cc(NC(=O)C(C)Br)ccc2F)cc1OC` (stereo unspecified), the half-inhibitory concentration (IC50) came out at 470 nM.

Regarding `CC(Br)C(=O)Nc1cccc(C(=O)NCCN(C)C)c1` (stereo unspecified), the IC50 is over 10000 nM.

Compound `CC(Br)C(=O)Nc1cccc(C(=O)N2CCN(C)CC2)c1` (stereo unspecified) had a 50% inhibitory concentration (IC50) of over 10000 nM.

In turn, `COc1ccc(NC(=O)c2cccc(NC(=O)C(C)Br)c2)cc1OC` (stereo unspecified) displayed an IC50 of 120 nM.

As for `COc1ccc(/C=C\c2cc(OC)c(OC)c(OC)c2)cc1O` [COMBRETASTATIN A4], the IC50 was 90 nM.

The next assay has as its system MCF7. In words: Antiproliferative activity against human MCF7 cells. In kind it is functional, cell-based.
Turning to `COc1cc(NC(=O)c2cccc(NC(=O)C(C)Br)c2)ccc1O` (stereo unspecified), 860 nM corresponded to half-maximal inhibition (IC50).

Regarding `COc1cc(NC(=O)c2cccc(NC(=O)C(C)Br)c2)cc(OC)c1OC` (stereo unspecified), the IC50 was 1470 nM.

`COc1cc(NC(=O)c2cc(NC(=O)C(C)Br)ccc2F)cc(OC)c1OC` (stereo unspecified): the midpoint of inhibition, the IC50, lay at 2110 nM.

In the case of `COc1ccc(NC(=O)c2cc(NC(=O)C(C)Br)ccc2F)cc1` (stereo unspecified), inhibition was half-maximal at 1390 nM (IC50).

In turn, `COc1cc(NC(=O)c2cc(NC(=O)C(C)Br)ccc2F)ccn1` (stereo unspecified) came in with an IC50 of 2200 nM.

For the compound `COc1ccc(NC(=O)c2cccc(NC(=O)C(C)Br)c2)cc1OC` (stereo unspecified), the IC50 worked out at 1230 nM.

Another assay relates to Bel-7402. The experiment in a line: Antiproliferative activity against human Bel7402 cells. In kind it is functional, cell-based.
Compound `COc1cc(NC(=O)c2cccc(NC(=O)C(C)Br)c2)ccc1O` (stereo unspecified) returned a 50% inhibitory concentration (IC50) of 5260 nM.

Consider `COc1cc(NC(=O)c2cccc(NC(=O)C(C)Br)c2)cc(OC)c1OC` (stereo unspecified), for which the 50% inhibitory concentration (IC50) stood at 2640 nM.

Compound `COc1cc(NC(=O)c2cc(NC(=O)C(C)Br)ccc2F)cc(OC)c1OC` (stereo unspecified) had an IC50 of 2050 nM.

In turn, `COc1ccc(NC(=O)c2cc(NC(=O)C(C)Br)ccc2F)cc1` (stereo unspecified) returned an IC50 of 3370 nM.

In the case of `COc1cc(NC(=O)c2cc(NC(=O)C(C)Br)ccc2F)ccn1` (stereo unspecified), the half-maximal inhibitory concentration (IC50) came out at 2700 nM.

In turn, `COc1ccc(NC(=O)c2cccc(NC(=O)C(C)Br)c2)cc1OC` (stereo unspecified) yielded an IC50 of 2330 nM.

Another assay relates to DU-145. The experiment in a line: Antiproliferative activity against human DU145 cells. In kind it is functional, cell-based.
`COc1cc(NC(=O)c2cccc(NC(=O)C(C)Br)c2)ccc1O` (stereo unspecified) returned an IC50 of 6480 nM.

On to `COc1cc(NC(=O)c2cccc(NC(=O)C(C)Br)c2)cc(OC)c1OC` (stereo unspecified), for which the half-inhibitory concentration (IC50) amounted to 1930 nM.

Compound `COc1cc(NC(=O)c2cc(NC(=O)C(C)Br)ccc2F)cc(OC)c1OC` (stereo unspecified) came in with an IC50 of 2030 nM.

In turn, `COc1ccc(NC(=O)c2cc(NC(=O)C(C)Br)ccc2F)cc1` (stereo unspecified) yielded an IC50 of 6450 nM.

For `COc1cc(NC(=O)c2cc(NC(=O)C(C)Br)ccc2F)ccn1` (stereo unspecified), the 50% inhibitory concentration (IC50) turned out to be 2350 nM.

On to `COc1ccc(NC(=O)c2cccc(NC(=O)C(C)Br)c2)cc1OC` (stereo unspecified), for which inhibition was half-maximal at 1870 nM (IC50).

In turn, `COc1ccc(/C=C\c2cc(OC)c(OC)c(OC)c2)cc1O` [COMBRETASTATIN A4] showed an IC50 of 9 nM.

Another assay deals with PC-3. The experiment in a line: Antiproliferative activity against human PC3 cells. In kind it is functional, cell-based.
Take `COc1cc(NC(=O)c2cccc(NC(=O)C(C)Br)c2)ccc1O` (stereo unspecified): the midpoint of inhibition, the IC50, lay at 3130 nM.

In turn, `COc1cc(NC(=O)c2cccc(NC(=O)C(C)Br)c2)cc(OC)c1OC` (stereo unspecified) returned a half-inhibitory concentration (IC50) of 2460 nM.

`COc1cc(NC(=O)c2cc(NC(=O)C(C)Br)ccc2F)cc(OC)c1OC` (stereo unspecified) had a half-inhibitory concentration (IC50) of 2180 nM.

Compound `COc1ccc(NC(=O)c2cc(NC(=O)C(C)Br)ccc2F)cc1` (stereo unspecified) displayed a concentration for half-maximal inhibition (IC50) of 2430 nM.

Compound `COc1cc(NC(=O)c2cc(NC(=O)C(C)Br)ccc2F)ccn1` (stereo unspecified) yielded an IC50 of 2420 nM.

As to `COc1ccc(NC(=O)c2cccc(NC(=O)C(C)Br)c2)cc1OC` (stereo unspecified), the IC50 stood at 2360 nM.

System in a further assay: not listed separately
The experiment in a line: Antiproliferative activity against human DND1 cells. In kind it is functional, cell-based.
On to `COc1cc(NC(=O)c2cccc(NC(=O)C(C)Br)c2)ccc1O` (stereo unspecified), for which it took 1220 nM to reach half-maximal inhibition (IC50).

Compound `COc1cc(NC(=O)c2cccc(NC(=O)C(C)Br)c2)cc(OC)c1OC` (stereo unspecified) returned an IC50 of 2260 nM.

`COc1cc(NC(=O)c2cc(NC(=O)C(C)Br)ccc2F)cc(OC)c1OC` (stereo unspecified) yielded an IC50 of 4160 nM.

`COc1ccc(NC(=O)c2cc(NC(=O)C(C)Br)ccc2F)cc1` (stereo unspecified) showed an IC50 of 2560 nM.

On to `COc1cc(NC(=O)c2cc(NC(=O)C(C)Br)ccc2F)ccn1` (stereo unspecified), for which the half-inhibitory concentration (IC50) is 2570 nM.

`COc1ccc(NC(=O)c2cccc(NC(=O)C(C)Br)c2)cc1OC` (stereo unspecified): inhibition was half-maximal at 1400 nM (IC50).

`COc1ccc(/C=C\c2cc(OC)c(OC)c(OC)c2)cc1O` [COMBRETASTATIN A4] gave an IC50 of 3 nM.

The compound `COc1cc([C@@H]2c3cc4c(cc3[C@H](O)[C@H]3COC(=O)[C@H]23)OCO4)cc(OC)c1OC` [PODOFILOX] showed a half-inhibitory concentration (IC50) of 12 nM.

In the next assay the test system is CEM (Homo sapiens). The experiment in a line: Cell cycle arrest in human CEM cells by accumulation at S phase after 6 hrs at 6.14 uM.
`COc1ccc(NC(=O)c2cccc(NC(=O)C(C)Br)c2)cc1OC` (stereo unspecified) gave an Activity of 52.9%.

In the next assay the test system is CEM (Homo sapiens). The experiment in a line: Cell cycle arrest in human CEM cells by accumulation at S phase after 24 hrs at 6.14 uM.
For `COc1ccc(NC(=O)c2cccc(NC(=O)C(C)Br)c2)cc1OC` (stereo unspecified), the Activity is reported as 61.9%.

The test system of another assay is CEM (Homo sapiens). The experiment in a line: Cell cycle arrest in human CEM cells by accumulation at S phase after 6 to 12 hrs at 6.14 uM.
With `COc1ccc(NC(=O)c2cccc(NC(=O)C(C)Br)c2)cc1OC` (stereo unspecified), the Activity stood at 62.7%.

As usually defined, the IC50 is the concentration needed to halve the response being measured. A lower IC50 goes with higher potency.
